Source: PMC11731258, “The structural basis for high-affinity c-di-GMP binding to the GSPII-B domain of the traffic ATPase PilF from Thermus thermophilus” (The Journal of Biological Chemistry, 2024)

Molecular target: T1, PilF159-302 (GSPII-B domain) (Thermus thermophilus, UniProt Q5SLC9)
T1 sequence (Q5SLC9 159-302): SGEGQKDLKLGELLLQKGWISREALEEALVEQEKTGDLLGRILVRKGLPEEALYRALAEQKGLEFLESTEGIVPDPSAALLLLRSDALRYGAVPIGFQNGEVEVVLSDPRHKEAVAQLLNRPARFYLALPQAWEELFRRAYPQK
Assay: ITC binding to PilF159-302
Description: To assess the ligand-binding capabilities of the various PilF constructs, triplicates of ITC measurements were recorded for each construct. The measurements were carried out using a MicroCal ITC200 (Malvern Panalytical). […] All protein samples were extensively dialyzed against the sample buffer and the buffer used for dialysis was used to dilute protein and c-di-GMP samples in preparation for the ITC measurements. Each measurement was conducted using the following protocol. In total, 39.8 μl c-di-GMP were titrated to 270 μl protein in 20 separate injections in 180 s intervals with a stirring speed of 750 rpm. After an initial delay of 120 s, the first injection of 0.2 μl c-di-GMP with a duration of 0.4 s was followed by 19 injections of 2 μl with a duration of 4 s. During the measurement, the feedback mode was set to high and the reference power to 11 μcal s^−1. To optimize precision of the measurements, protein and c-di-GMP concentrations were adjusted to the binding capabilities of the respective constructs and ranged from 5 to 200 μM for protein and 50 to 2000 μM for c-di-GMP. All thermograms were processed using Origin 7.0 (OriginLab) using a one-site– or two-site–binding model dependent on the number of expected binding events.

Which Kd does the source give for `O=c1[nH]cnc2c1ncn2[C@@H]1O[C@@H]2COP(=O)(O)O[C@H]3[C@@H](O)[C@H](n4cnc5c(=O)[nH]cnc54)O[C@@H]3COP(=O)(O)O[C@H]2[C@H]1O` [c-di-IMP, cyclic dimeric inosine-monophosphate] here?
The Kd was 60 ± 1 nM.

And the N (ITC, 20 °C)?
The N was 0.74 ± 0.03.

And the ΔH (ITC, 20 °C)?
The ΔH was -7.103 ± 0.234 kcal/mol.

And the ΔS (ITC, 20 °C)?
Its ΔS is 8.8 ± 0.8 cal/mol/deg.
